These results are taken from patent US20260146038A1, “NOVEL SALT OF DIMETHYL-2,3-DIHYDRO-1H-INDENE DERIVATIVE AND PROCESSES FOR PREPARING THE SAME” (YUHAN CORPORATION, priority 2022, published 2026).

Where only a bound is given, the exact number is not on record here.

Common to all, as to type: physicochemical
The nature of series [1]: Hygroscopicity evaluation by Dynamic Vapor Sorption (DVS).
Series [2] in a line: Stability test (accelerated condition). The note with it: for Water contents: Karl Fischer; for Water contents / HPLC purity: accelerated condition (40±2° C., 75±5% RH). The source says: The results obtained by measuring purities (the HPLC purities) and water contents (by Karl Fischer method) are shown in Table 1 below.
Series [3] can be described thus: Water-solubility evaluation. As to conditions: 20° C.
Series [4] can be described thus: Photostability test according to ICH guideline Q1B. As to conditions: for Water contents: Karl Fischer. As for the experimental part:
Photostability tests were carried out according to ICH guideline Q1B. […] The results obtained by measuring purities (the HPLC purities) and water contents (by Karl Fischer method) are shown in Table 2 below.

In the case of `CC(C)Oc1ccc(-c2ccc3c(c2)CC(C)(C)C3NC(=O)O[C@@H]2CN3CCC2CC3)cc1Cl` (stereo partly drawn) [Compound of WO 2021/096238, (S)-quinuclidin-3-yl (5-(3-chloro-4-isopropoxyphenyl)-2,2-dimethyl-2,3-dihydro-1H-inden-1-yl)carbamate, reference compound], in series [1] (amorphous free base), the “hygroscopicity (in words)” value is “high hygroscopicity”. In series [2] (amorphous free base), the “stability (form changes) in the accelerated condition” value is reported as “low stability”. For the same compound, the solubility in series [3] was < 10 µg/mL.
On to “((1S,4R)-7,7-dimethyl-2-oxobicyclo[2.2.1]heptan-1-yl)methanesulfonic acid salt of (S)-quinuclidin-3-yl ((R)-5-(3-chloro-4-isopropoxyphenyl)-2,2-dimethyl-2,3-dihydro-1H-inden-1-yl)carbamate [Example 1]”, for which, in series [1] (weight change, room temperature (about 25° C.), RH 80%, 24 hours), the Moisture adsorption was determined as 2.3%. For the same compound, in series [2] (40±2° C., 75±5% RH, up to 3 months), the “difference in the water contents under the accelerated condition” value was ≤ 1.0%. The “stability by XRD and appearance under the accelerated condition” value in series [2] (40±2° C., 75±5% RH, FIGS. 5 and 6) is reported as “excellent stability”. The Water contents in series [2] (1 month) came to 0.32%; in series [2] (3 months), 1.28%; in series [2] (Initial), 0.48%; in series [4] (Initial) it was 0.48%; in series [4] (Light exposure (UV light for 10 hours / visible light for 40 hours)), 0.31%. Besides, the HPLC purity in series [2] (1 month), in series [2] (3 months), in series [2] (Initial), in series [4] (Initial) and in series [4] (Light exposure (UV light 20 W/m^2 for 10 hours / visible light 30,000 lux for 40 hours)) was 98.6% in each case.
